Test results from patent US20240391948A1, “NOVEL COMPOUND THAT INHIBITS TNF-ALPHA GENERATION AND INFLAMMASOME ACTIVITY AND PREPARATION METHOD THEREFOR” (SHAPERON INC., priority 2021, published 2024).

Tests used:
Assay type in all cases: cell-based
[1] = tested on: J774A.1 (Mouse BALB/c monocyte macrophage cell line) cells; test: LPS-induced TNF-α secretion inhibition in J774A.1 cells; conditions: J774.A1, 1 μM compound, graded compared to taurodeoxycholic acid (positive control), read-out: TNF-α production inhibition grade
In short: (§1)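 Mouse J774A.1 macrophages treated with 1 μM compound; TNF-α secretion measured after LPS stimulation and IL-1β secretion after LPS+ATP stimulation. Suppression graded against taurodeoxycholic acid: A over 100%, B 50–100%, C 20–50%, D under 20%.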

[2] = tested on: J774A.1 (Mouse BALB/c monocyte macrophage cell line) cells; test: LPS+ATP-induced IL-1β secretion inhibition in J774A.1 cells; conditions: J774.A1, 1 μM compound, graded compared to taurodeoxycholic acid (positive control), read-out: IL-1β production inhibition grade
In short: as §1

[3] = tested on: U937 cells (human monocytic cell line); test: Pam2CSK4-induced TNF-α secretion inhibition in PMA-differentiated U937 cells; conditions: U-937, U937 cells differentiated with PMA, read-out: TNF-α production inhibition grade (IC50)
In short: (§2)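 U937 cells were PMA-differentiated into macrophages and treated with compound before inflammatory stimulus. TNF-α secretion was induced with Pam2CSK4 and IL-1β secretion with BzATP. IC50 (μM) values are graded A-D, with separate cut-offs per cytokine.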

[4] = tested on: U937 cells (human monocytic cell line); test: BzATP-induced IL-1β secretion inhibition in PMA-differentiated U937 cells; conditions: U-937, U937 cells differentiated with PMA, read-out: IL-1β production inhibition grade (IC50)
In short: as §2

SMILES	inhibition at 1 µM [1] [%]	inhibition at 1 µM [2] [%]	IC50 [3] [nM]	IC50 [4] [nM]
C[C@H](CCC(=O)NCCCS(=O)(=O)O)[C@H]1CC[C@H]2[C@@H]3CC[C@@H]4C[C@H](O)CC[C@]4(C)[C@H]3C[C@H](O)[C@]12C [NC10002]	> 100	> 100	< 500	< 50
C[C@H](CCC(=O)NC[C@@H](C)S(=O)(=O)O)[C@H]1CC[C@H]2[C@@H]3CC[C@@H]4CC(=O)CC[C@]4(C)[C@H]3CC[C@]12C [NC30023]	> 100	50 to 100	≥ 2000	≥ 200
CC[C@H]1[C@@H](O)[C@@H]2[C@H](CC[C@]3(C)[C@@H]([C@H](C)CCC(=O)NC[C@H](C)S(=O)(=O)O)CC[C@@H]23)[C@@]2(C)CC[C@@H](O)C[C@@H]12 [NC40022]	20 to 50	20 to 50	500 to 1000	≥ 200
C[C@H](CCC(=O)NCCCO)[C@H]1CC[C@H]2[C@@H]3CC[C@@H]4C[C@H](O)CC[C@]4(C)[C@H]3CC[C@]12C [NC10054]	< 20	50 to 100	1000 to 2000	50 to 100
C[C@H](CCC(=O)N1CC[C@@H](S(=O)(=O)O)C1)[C@H]1CC[C@H]2[C@@H]3[C@H](O)C[C@@H]4C[C@H](O)CC[C@]4(C)[C@H]3C[C@H](O)[C@]12C [NC20034]	< 20	< 20	1000 to 2000	50 to 100
CC[C@H]1[C@@H](O)[C@@H]2[C@H](C[C@H](O)[C@]3(C)[C@@H]([C@H](C)CCC(=O)N[C@H](CC(C)C)CS(=O)(=O)O)CC[C@@H]23)[C@@]2(C)CC[C@@H](O)C[C@@H]12 [NC50031]	< 20	50 to 100	≥ 2000	50 to 100
CC(C)[C@H](CS(=O)(=O)O)NC(=O)CC[C@@H](C)[C@H]1CC[C@H]2[C@@H]3CC[C@@H]4C[C@H](O)CC[C@]4(C)[C@H]3CC[C@]12C [NC10073]	< 20	50 to 100	< 500	50 to 100
C[C@H](CCC(=O)N1CCC[C@H](S(=O)(=O)O)C1)[C@H]1CC[C@H]2[C@@H]3[C@H](O)C[C@@H]4C[C@H](O)CC[C@]4(C)[C@H]3C[C@H](O)[C@]12C [NC20009]	< 20	< 20	≥ 2000	< 50
C[C@H](CCC(=O)N1CCC(S(=O)(=O)O)CC1)[C@H]1CC[C@H]2[C@@H]3CC[C@@H]4C[C@H](O)CC[C@]4(C)[C@H]3CC[C@]12C [NC10062]	< 20	> 100	500 to 1000	< 50
CC[C@H]1[C@@H](O)[C@@H]2[C@H](CC[C@]3(C)[C@@H]([C@H](C)CCC(=O)NC(C)(C)CS(=O)(=O)O)CC[C@@H]23)[C@@]2(C)CC[C@@H](O)C[C@@H]12 [NC40013]	< 20	> 100	1000 to 2000	< 50
C[C@H](CCC(=O)N1CC[C@H](S(=O)(=O)O)C1)[C@H]1CC[C@H]2[C@@H]3[C@H](O)C[C@@H]4C[C@H](O)CC[C@]4(C)[C@H]3C[C@H](O)[C@]12C [NC20033]	< 20	20 to 50	1000 to 2000	50 to 100
CCN(CC)CCNC(=O)CC[C@@H](C)[C@H]1CC[C@H]2[C@@H]3CC[C@@H]4C[C@H](O)CC[C@]4(C)[C@H]3C[C@H](O)[C@]12C [NC10017]	> 100	> 100	500 to 1000	< 50
C[C@H](CCC(=O)N[C@@H](C)CS(=O)(=O)O)[C@H]1CC[C@H]2[C@@H]3[C@H](O)C[C@@H]4C[C@H](O)CC[C@]4(C)[C@H]3C[C@H](O)[C@]12C [NC20028]	< 20	< 20	1000 to 2000	≥ 200
C[C@H](CCC(=O)N1CCC(S(=O)(=O)O)CC1)[C@H]1CC[C@H]2[C@@H]3[C@H](O)C[C@@H]4C[C@H](O)CC[C@]4(C)[C@H]3C[C@H](O)[C@]12C [NC20011]	< 20	50 to 100	≥ 2000	50 to 100
CC[C@H]1[C@@H](O)[C@@H]2[C@H](CC[C@]3(C)[C@@H]([C@H](C)CCC(=O)N[C@@H](CO)CS(=O)(=O)O)CC[C@@H]23)[C@@]2(C)CC[C@@H](O)C[C@@H]12 [NC40024]	< 20	< 20	500 to 1000	≥ 200
CC[C@H]1[C@@H](O)[C@@H]2[C@H](C[C@H](O)[C@]3(C)[C@@H]([C@H](C)CCC(=O)N[C@@H](CC(C)C)CS(=O)(=O)O)CC[C@@H]23)[C@@]2(C)CC[C@@H](O)C[C@@H]12 [NC50030]	< 20	50 to 100	≥ 2000	100 to 200
C[C@H](CCC(=O)Nc1ccc(S(=O)(=O)O)cc1)[C@H]1CC[C@H]2[C@@H]3CC[C@@H]4C[C@H](O)CC[C@]4(C)[C@H]3C[C@H](O)[C@]12C [NC10003]	> 100	> 100	< 500	< 50
CC(C)C[C@@H](CS(=O)(=O)O)NC(=O)CC[C@@H](C)[C@H]1CC[C@H]2[C@@H]3CC[C@@H]4CC(=O)CC[C@]4(C)[C@H]3CC[C@]12C [NC30030]	< 20	20 to 50	500 to 1000	≥ 200
C[C@H](CCC(=O)N[C@@H](CO)CS(=O)(=O)O)[C@H]1CC[C@H]2[C@@H]3CC[C@@H]4C[C@H](O)CC[C@]4(C)[C@H]3C[C@H](O)[C@]12C [NC10040]	< 20	< 20	1000 to 2000	≥ 200
CC(C)N(CCS(=O)(=O)O)C(=O)CC[C@@H](C)[C@H]1CC[C@H]2[C@@H]3CC[C@@H]4C[C@H](O)CC[C@]4(C)[C@H]3C[C@H](O)[C@]12C [NC10024]	< 20	> 100	1000 to 2000	50 to 100
C[C@H](CCC(=O)N1CCC(S(=O)(=O)O)CC1)[C@H]1CC[C@H]2[C@@H]3CC[C@@H]4CC(=O)CC[C@]4(C)[C@H]3CC[C@]12C [NC30011]	< 20	< 20	500 to 1000	≥ 200
CC[C@H]1[C@@H](O)[C@@H]2[C@H](C[C@H](O)[C@]3(C)[C@@H]([C@H](C)CCC(=O)N[C@H](C)CS(=O)(=O)O)CC[C@@H]23)[C@@]2(C)CC[C@@H](O)C[C@@H]12 [NC50029]	< 20	50 to 100	500 to 1000	≥ 200
CC[C@H]1[C@@H](O)[C@@H]2[C@H](C[C@H](O)[C@]3(C)[C@@H]([C@H](C)CCC(=O)NC(C)(C)CS(=O)(=O)O)CC[C@@H]23)[C@@]2(C)CC[C@@H](O)C[C@@H]12 [NC50013]	< 20	> 100	1000 to 2000	< 50
CC[C@H]1[C@@H](O)[C@@H]2[C@H](CC[C@]3(C)[C@@H]([C@H](C)CCC(=O)N[C@@H](CS(=O)(=O)O)c4ccccc4)CC[C@@H]23)[C@@]2(C)CC[C@@H](O)C[C@@H]12 [NC40019]	< 20	> 100	1000 to 2000	100 to 200
C[C@H](CCC(=O)NC(C)(C)CS(=O)(=O)O)[C@H]1CC[C@H]2[C@@H]3[C@H](O)C[C@@H]4C[C@H](O)CC[C@]4(C)[C@H]3C[C@H](O)[C@]12C [NC20013]	< 20	> 100	1000 to 2000	< 50
CC[C@H]1[C@@H](O)[C@@H]2[C@H](CC[C@]3(C)[C@@H]([C@H](C)CCC(=O)N4CC(S(=O)(=O)O)C4)CC[C@@H]23)[C@@]2(C)CC[C@@H](O)C[C@@H]12 [NC40012]	< 20	50 to 100	500 to 1000	≥ 200
CC[C@H]1[C@@H](O)[C@@H]2[C@H](CC[C@]3(C)[C@@H]([C@H](C)CCC(=O)N[C@@H](C)CS(=O)(=O)O)CC[C@@H]23)[C@@]2(C)CC[C@@H](O)C[C@@H]12 [NC40028]	< 20	50 to 100	1000 to 2000	100 to 200
CC(C)C[C@H](CS(=O)(=O)O)NC(=O)CC[C@@H](C)[C@H]1CC[C@H]2[C@@H]3CC[C@@H]4CC(=O)CC[C@]4(C)[C@H]3CC[C@]12C [NC30031]	< 20	20 to 50	500 to 1000	≥ 200
C[C@H](CCC(=O)N(C)CCS(=O)(=O)O)[C@H]1CC[C@H]2[C@@H]3CC[C@@H]4C[C@H](O)CC[C@]4(C)[C@H]3CC[C@]12C [NC10055]	< 20	50 to 100	1000 to 2000	< 50
